Consider 29 compounds from patent publication US20070157323A1, “In vivo odorant receptor systems and their uses” (priority 2003, published 2007).

The subject of one assay is generalist predator. As to conditions: volatiles released individually, Nicotiana attenuata; Kessler et al.; cited from earlier work.
The test system of assay [1] is Oedaleus decorus asiaticus. As to conditions: both sexes; Chen et al.; cited from earlier work.
For the next assay, the system named is Angaracris barabensis. As to conditions: both sexes; Chen et al.; cited from earlier work.
The subject of another assay is V. pensylvanica. Particulars: Davis et al.; MacDonald et al.; McGovern et al.; cited from earlier work.
In another assay the target is T1, AgOr2 (Anopheles gambiae, UniProt Q8WTE6).
T1 construct: expressed in transfected cells; host or cells: Transgenic Drosophila, ab3A olfactory receptor neuron lacking Or22a/Or22b (Δhalo), GAL4-UAS
T1 sequence (Q8WTE6 1-378): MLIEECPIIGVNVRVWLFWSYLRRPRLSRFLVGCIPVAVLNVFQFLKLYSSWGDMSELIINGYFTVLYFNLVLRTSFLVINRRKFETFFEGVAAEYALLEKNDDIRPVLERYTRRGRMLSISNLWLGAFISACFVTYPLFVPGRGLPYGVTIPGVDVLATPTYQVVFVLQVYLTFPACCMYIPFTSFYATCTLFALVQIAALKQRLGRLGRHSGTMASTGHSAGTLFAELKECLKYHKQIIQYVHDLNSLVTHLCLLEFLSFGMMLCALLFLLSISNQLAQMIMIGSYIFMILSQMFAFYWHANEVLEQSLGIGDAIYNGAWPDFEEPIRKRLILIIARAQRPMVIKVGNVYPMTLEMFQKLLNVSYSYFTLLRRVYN
T1 sequence (Q9VNB5 1-486 partner): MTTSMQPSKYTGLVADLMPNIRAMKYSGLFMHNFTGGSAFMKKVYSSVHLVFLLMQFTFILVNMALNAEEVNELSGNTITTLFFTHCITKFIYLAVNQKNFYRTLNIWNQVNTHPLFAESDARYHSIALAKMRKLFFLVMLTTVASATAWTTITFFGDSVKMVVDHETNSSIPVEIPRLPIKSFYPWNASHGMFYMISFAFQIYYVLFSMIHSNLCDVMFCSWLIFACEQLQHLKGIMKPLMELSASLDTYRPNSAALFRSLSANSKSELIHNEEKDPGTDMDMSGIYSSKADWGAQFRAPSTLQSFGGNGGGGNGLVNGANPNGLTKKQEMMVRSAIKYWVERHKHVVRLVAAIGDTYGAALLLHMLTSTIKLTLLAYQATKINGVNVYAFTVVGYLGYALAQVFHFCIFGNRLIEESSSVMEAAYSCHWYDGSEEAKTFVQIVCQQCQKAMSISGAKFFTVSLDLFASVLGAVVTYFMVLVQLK
Briefly: Single-unit electrophysiology of Drosophila ab3A neuron (Δhalo) expressing AgOr2. The class given is in vivo. As to conditions: liquid odors diluted 10^−4, solid odors 0.2 mg/ml in paraffin oil, 0.5 s pulse, FIG. 1b. The method, then:
In summary, odorant receptors are introduced specifically into Δab3A using the GAL4/UAS system and Or22a-GAL4 is used to drive expression from a UAS-Or construct. The odorant response of the neuron (Δab3A:OrX) is assayed electrophysiologically.
To investigate the function of the A. gambiae odorant receptor genes AgOr1 and AgOr2 directly, these genes were expressed in the Drosophila olfactory receptor neuron that lacks odor response due to the deletion of its endogenous receptor genes, Or22a and Or22b using an Or22a promoter and the GAL4-UAS system.
AgOr1 and AgOr2 were expressed in the Δhalo background using the GAL4-UAS system. Specifically AgOr1 or AgOr2 was placed under the control of a UAS and expressed using the 22a-GAL4 driver so as to drive its expression in ab3A cells. […]
Action potentials of the ORNs in a sensillum were recorded by placing an electrode through the sensillum wall into contact with the lymph that bathes the dendrites. […] Recordings were analyzed offline in IGOR-Pro (WaveMetrics, Lake Oswego, Oreg.).
Odor stimuli were presented from Pasteur pipettes holding solutions of chemicals in paraffin oil on filter paper. […] Responses of the ab3A neurons were quantified by subtracting the number of impulses (i.e., spikes) in 500 ms of spontaneous activity from the number in the 500 ms after the onset of odor stimulation (FIG. 1).

Assay [2] deals with Rhagoletis pomonella flies. As to conditions: Nojima et al.; cited from earlier work.
In another assay the test system is Apol PBP1a. Particulars: 3H-labeled ligand; cited from earlier work.
The test system of a further assay is Apol PBP3. Particulars: 3H-labeled ligand; cited from earlier work.
The next assay concerns Aper PBP1. As to conditions: cited from earlier work.
The next assay concerns the target T2, Aper PBP2 (Antheraea pernyi, UniProt Q17078).
T2 construct: from tissue; host or cells: Sensory hair homogenates of A. pernyi (study quoted from the literature)
T2 sequence (Q17078 23-164): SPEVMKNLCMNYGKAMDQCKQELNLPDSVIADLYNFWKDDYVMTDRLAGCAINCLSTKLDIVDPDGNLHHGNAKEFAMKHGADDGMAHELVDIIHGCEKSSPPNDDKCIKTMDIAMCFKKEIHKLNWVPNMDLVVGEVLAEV
Particulars: cited from earlier work.

The subject of another assay is ab3A neuron. Particulars: cited from earlier work; for strongest responses of the A neuron: sensilla expressing Or22a and Or22b.
The next assay deals with B neuron. As to conditions: sensilla expressing Or22a and Or22b; cited from earlier work.
For a further assay, the system named is lepidopteran. Particulars: Nicotiana attenuata; Kessler et al.; cited from earlier work.

Regarding `CC(C)=CCC[C@]1(C)[C@H]2CC=C(C)[C@@H]1C2` (relative stereo) [cis-alpha-bergamotene], the “egg predation rates by a generalist predator” value (“egg predation rates” for short) in the assay on generalist predator is “increased egg predation rates”.
Consider `CCCCCCCO` [1-heptanol], for which the EAG responses entry (in assay [1]; in the assay with Angaracris barabensis) was “Strong EAG responses” in each case.
Take `CCCCCCO` [1-hexanol]: the EAG responses result (in assay [1]; with Angaracris barabensis) was “Strong EAG responses” each time.
On to `CC=CC=CCOC(=O)CCC` [2,4-Hexadienyl butyrate], for which, in the assay on V. pensylvanica, the “attraction of V. pensylvanica” value was “attract”.
As to `CC=CC=CCOC(=O)C(C)C` [2,4-hexadienyl isobutyrate], in the assay with V. pensylvanica, the “attraction of V. pensylvanica” value was “attract”.
Regarding `CC=CC=CCOC(=O)CC` [2,4-hexadienyl propionate], in the assay with V. pensylvanica, the “attraction of V. pensylvanica” value is “attract”.
Regarding `Cc1ccccc1O` [2-methylphenol], at AgOr2, the “odor response conferred by AgOr2” value was “strong response”.
Consider `CC(C)CCO` [3-methylbutan-1-ol], for which the EAD activity entry in [2] was “Consistent EAD activity”.
Consider `C=C/C=C(\C)CCC=C(C)C` [4,8-dimethyl-1,3(E),7-nonatriene], for which the EAD activity result in assay [2] is “Consistent EAD activity”.
As to `CCCC/C=C\CCC/C=C/CCCCCOC(C)=O` [AC1, (E,Z)-6,11-hexadecadienyl acetate], in the assay with Apol PBP1a, the “binding to Apol PBP1a” value is given as “bound”. The “binding to Apol PBP3” value in the assay on Apol PBP3 is “bound”. In addition, the “binding affinity to Aper PBP1” value in the assay with Aper PBP1 is recorded as “showed binding affinity”.
On to `CCCC/C=C\CCC/C=C/CCCCC=O` [ALD, (E,Z)-6,11-hexadecadienal], for which the “binding to Apol PBP1a” value in the assay with Apol PBP1a was “no binding”. Further, the “binding to Apol PBP3” value with Apol PBP3 is listed as “no binding”. Besides, the “binding affinity to Aper PBP2” value at Aper PBP2 was “showed binding affinity”.
In the case of `CCC/C=C/C=O` [E-2-hexen-1-al], the EAG responses result (in assay [1]; in the assay on Angaracris barabensis) was “Strong EAG responses” each time.
Consider `CCC/C=C/CO` [E-2-hexen-1-ol], for which the EAG responses entry (in [1]; in the assay on Angaracris barabensis) was “Strong EAG responses” throughout.
For the compound `CC/C=C/CCO` [E-hexen-3-ol-1], the EAG responses result (in assay [1]; in the assay on Angaracris barabensis) was “Strong EAG responses” each time.
On to `CCC/C=C\CO` [Z-hexen-2-ol-1], for which the EAG responses result (in assay [1]; in the assay on Angaracris barabensis) was “Strong EAG responses” throughout.
As for `CC/C=C\CCOC(C)=O` [Z-hexen-3-yl acetate], the EAG responses entry (in [1]; in the assay on Angaracris barabensis) was “Strong EAG responses” each time.
Take `CCCCCC(=O)OCCCC` [butyl hexanoate]: the EAD activity result in assay [2] is “Consistent EAD activity”.
Take `CC/C=C\CCO` [cis-3-hexen-1-ol]: the “egg predation rates” value in the assay on generalist predator is on record as “increased egg predation rates”.
Regarding `CC(=O)CCC1=C(C)CCCC1(C)C` [dihydro-beta-ionone], in assay [2], the EAD activity entry is listed as “Consistent EAD activity”.
In the case of `CCOC(C)=O` [ethyl acetate], in the assay with ab3A neuron, the “strongest responses of the A neuron” value was “strongest responses”. In assay [2], the EAD activity result is “Consistent EAD activity”.
With `CCCC(=O)OCC` [ethyl butyrate], the “sensitivity of ab3A” value in the assay with ab3A neuron (in vivo) is listed as “highly sensitive”. The “strongest responses of the A neuron” value in the assay on ab3A neuron is “strongest responses”.
With `CCCCCC(C)=O` [heptanone], the “strongest responses of the B neuron” value in the assay with B neuron is recorded as “strongest responses”.
With `CCCCCCCOC(=O)CCC` [heptyl butyrate], the “attraction of V. pensylvanica” value in the assay with V. pensylvanica is given as “attract”.
As for `CCCCCCO` [hexanol], in the assay with B neuron, the “strongest responses of the B neuron” value was “strongest responses”.
As for `CC(=O)OCCC(C)C` [isoamyl acetate], the EAD activity result in assay [2] is recorded as “Consistent EAD activity”.
As to `C=CC(C)(O)CCC=C(C)C` (stereo not shown) [linalool], in the assay with generalist predator, the “egg predation rates” value was “increased egg predation rates”. Moreover, the lepidopteran oviposition rates result in the assay on lepidopteran is listed as “decreased lepidopteran oviposition rates”.
As to `C=CC(O)CCCCC` (stereo not shown) [octenol], in the assay with B neuron, the “strongest responses of the B neuron” value was “strongest responses”.
For `CCCCCCCCOC(=O)CCC` [octyl butyrate], in the assay with V. pensylvanica, the “attraction of V. pensylvanica” value is “attract”.
On to `CCCCCOC(C)=O` [pentyl acetate], for which the “strongest responses of the A neuron” value in the assay with ab3A neuron is reported as “strongest responses”.
